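Five concentrations, 48 hours, 96-well plates. The concentration for 50% growth inhibition is given as GI50. Definition used: TGI = concentration required for complete inhibition of growth.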
Tests used:
Assay in all cases: growth of human tumour cells (NCI), 48 h
[1] = tested on: 786-0 renal
[2] = tested on: A498 renal
[3] = tested on: A549 NSCLC
[4] = tested on: BT-549 breast
[5] = tested on: CAKI-1 renal
[6] = tested on: CCRF-CEM leukemia
[7] = tested on: COLO 205 colon
[8] = tested on: DU-145 prostate
[9] = tested on: EKVX NSCLC
[10] = tested on: HCC-2998 colon
[11] = tested on: HCT-116 colon
[12] = tested on: HCT-15 colon
[13] = tested on: HOP-62 NSCLC
[14] = tested on: HOP-92 NSCLC
[15] = tested on: HS 578T breast
[16] = tested on: HT29 colon
[17] = tested on: IGROV1 ovarian
[18] = tested on: K-562 leukemia
[19] = tested on: KM12 colon
[20] = tested on: LOX IMVI melanoma
[21] = tested on: M14 melanoma
[22] = tested on: MALME-3M melanoma
[23] = tested on: MCF7 breast
[24] = tested on: MDA-MB-231 breast
[25] = tested on: MDA-MB-435
[26] = tested on: MOLT-4 leukemia
[27] = tested on: NCI-H23 lung
[28] = tested on: NCI-H460 lung
[29] = tested on: NCI-H522 lung
[30] = tested on: NCI/ADR-RES ovarian
[31] = tested on: OVCAR-3 ovarian
[32] = tested on: OVCAR-4 ovarian
[33] = tested on: OVCAR-5 ovarian
[34] = tested on: OVCAR-8 ovarian
[35] = tested on: PC-3 prostate
[36] = tested on: RPMI-8226 leukemia
[37] = tested on: RXF 393 renal
[38] = tested on: SF-268 CNS
[39] = tested on: SF-295 CNS
[40] = tested on: SF-539 CNS
[41] = tested on: SK-MEL-2 melanoma
[42] = tested on: SK-MEL-28 melanoma
[43] = tested on: SK-MEL-5 melanoma
[44] = tested on: SK-OV-3 ovarian
[45] = tested on: SN12C renal
[46] = tested on: SNB-19 CNS
[47] = tested on: SNB-75 CNS
[48] = tested on: SR leukemia
[49] = tested on: SW-620 colon
[50] = tested on: T-47D breast
[51] = tested on: TK-10 renal
[52] = tested on: U251 CNS
[53] = tested on: UACC-257 melanoma
[54] = tested on: UACC-62 melanoma
[55] = tested on: UO-31 renal
[56] = tested on: ACHN renal
[57] = tested on: HL-60(TB) leukemia
[58] = tested on: NCI-H226 lung

Cc1nc(Nc2cccnc2)sc1C(=O)/C=C/c1ccc(F)cc1
GI50 [1]: 2.94 µM
TGI [1]: 19.4 µM
GI50 [2]: 7.61 µM
TGI [2]: 42.7 µM
GI50 [3]: 3.15 µM
TGI [3]: > 100 µM
GI50 [4]: 2.83 µM
TGI [4]: 8.87 µM
GI50 [5]: 3.39 µM
TGI [5]: 13.6 µM
GI50 [6]: 1.4 µM
TGI [6]: 24.7 µM
GI50 [7]: 2.81 µM
TGI [7]: 8.86 µM
GI50 [8]: 3.48 µM
TGI [8]: 14.8 µM
GI50 [9]: 5.15 µM
TGI [9]: > 100 µM
GI50 [10]: 4.09 µM
TGI [10]: 15.5 µM
GI50 [11]: 1.64 µM
TGI [11]: 4.18 µM
GI50 [12]: 2.14 µM
TGI [12]: 10.2 µM
GI50 [13]: 2.61 µM
TGI [13]: 7.6 µM
GI50 [14]: 3.1 µM
TGI [14]: 9.98 µM
GI50 [15]: 4.05 µM
TGI [15]: > 100 µM
GI50 [16]: 2.76 µM
TGI [16]: 10.1 µM
GI50 [17]: 2.85 µM
TGI [17]: > 100 µM
GI50 [18]: 2.78 µM
TGI [18]: > 100 µM
GI50 [19]: 2.04 µM
TGI [19]: 4.61 µM
GI50 [20]: 2.36 µM
TGI [20]: 6.52 µM
GI50 [21]: 3.02 µM
TGI [21]: 12.9 µM
GI50 [22]: 5.55 µM
TGI [22]: 40 µM
GI50 [23]: 2.29 µM
TGI [23]: > 100 µM
GI50 [24]: 4.03 µM
TGI [24]: > 100 µM
GI50 [25]: 2.71 µM
TGI [25]: 11.2 µM
GI50 [26]: 3.2 µM
TGI [26]: > 100 µM
GI50 [27]: 3.93 µM
TGI [27]: 20.7 µM
GI50 [28]: 2.68 µM
TGI [28]: 6.9 µM
GI50 [29]: 2.17 µM
TGI [29]: 5.11 µM
GI50 [30]: 3.24 µM
TGI [30]: > 100 µM
GI50 [31]: 3.14 µM
TGI [31]: 12.8 µM
GI50 [32]: 4.29 µM
TGI [32]: > 100 µM
GI50 [33]: 2.78 µM
TGI [33]: 23 µM
GI50 [34]: 3.92 µM
TGI [34]: > 100 µM
GI50 [35]: 4.07 µM
TGI [35]: 20.1 µM
GI50 [36]: 2.69 µM
TGI [36]: 15.2 µM
GI50 [37]: 3.01 µM
TGI [37]: 8.31 µM
GI50 [38]: 3.57 µM
TGI [38]: 31.9 µM
GI50 [39]: 3.09 µM
TGI [39]: 18.2 µM
GI50 [40]: 2.46 µM
TGI [40]: 7.26 µM
GI50 [41]: 2.86 µM
TGI [41]: 9.03 µM
GI50 [42]: 3.72 µM
TGI [42]: 21.4 µM
GI50 [43]: 3.64 µM
TGI [43]: 13.4 µM
GI50 [44]: 3.85 µM
TGI [44]: > 100 µM
GI50 [45]: 3.17 µM
TGI [45]: > 100 µM
GI50 [46]: 3.34 µM
TGI [46]: 15.9 µM
GI50 [47]: 3.42 µM
TGI [47]: 67.1 µM
GI50 [48]: 1.69 µM
TGI [48]: > 100 µM
GI50 [49]: 2.46 µM
TGI [49]: 6.46 µM
GI50 [50]: 2.25 µM
TGI [50]: > 100 µM
GI50 [51]: 2.98 µM
TGI [51]: > 100 µM
GI50 [52]: 2.95 µM
TGI [52]: 8.83 µM
GI50 [53]: 5.87 µM
TGI [53]: 28.6 µM
GI50 [54]: 1.99 µM
TGI [54]: 4.99 µM
GI50 [55]: 2.81 µM
TGI [55]: 16.9 µM

C=C1CC(C#N)(C#N)[C@H]2C3CCCC3C[C@@H]12 (stereo partly specified) (tested in a mixture with another compound)
TGI [1]: 36.9 µM
TGI [2]: 48 µM
TGI [56]: 61.1 µM
TGI [4]: 56.8 µM
TGI [8]: > 100 µM
TGI [9]: 98.4 µM
TGI [11]: 19.4 µM
TGI [12]: 32.8 µM
TGI [57]: 54.2 µM
TGI [14]: 35 µM
TGI [15]: > 100 µM
TGI [16]: 28.1 µM
TGI [17]: > 100 µM
TGI [18]: 82.8 µM
TGI [19]: 43.3 µM
TGI [21]: 29.2 µM
TGI [23]: 29.8 µM
TGI [24]: 55.2 µM
TGI [25]: 44.5 µM
TGI [26]: 43.5 µM
TGI [58]: 61.9 µM
TGI [30]: 48.2 µM
TGI [31]: 38.9 µM
TGI [34]: 33 µM
TGI [35]: 97.4 µM
TGI [37]: 41.7 µM
TGI [38]: 61.1 µM
TGI [39]: 39.4 µM
TGI [40]: 50.2 µM
TGI [42]: 42.4 µM
TGI [43]: > 100 µM
TGI [44]: > 100 µM
TGI [45]: 30.5 µM
TGI [46]: 67.4 µM
TGI [48]: 53.6 µM
TGI [49]: 29.7 µM
TGI [50]: > 100 µM
TGI [51]: > 100 µM
TGI [52]: 40.4 µM
TGI [54]: > 100 µM
TGI [55]: 35.3 µM

Source: PubChem BioAssay (NCI)
